Results on three compounds are retold here after patent publication US8128913B1, “Sunscreen composition with enhanced UV-A absorber stability and methods” (Skinvisible Pharmaceuticals, Inc., priority 2007, dated 2012).

Data set [1] is described as follows: photostability of sunscreen film on polyethylene under UV light at 365 nm, extraction and C18 chromatography. The format is physicochemical. The conditions noted are these: Example 1 composition (no tricontanyl polymer), between 4 and 8 hours of UV exposure, 2340 Watts/m^2. How it is done: To test the photostability of the sunscreen composition, 200-250 μl of the sunscreen composition was spread evenly over a 25 cm^2 piece of polyethylene film. The amount of sunscreen preparation was determined by weight, and the polyethylene film was dried for 1 hour at 35° C. After drying the film was exposed to […] (2340 Watts/m^2) of UV light at 365 nm for 0, 2, 4, 6 and 8 hours. Following light exposure, sunscreen was extracted with ethanol containing 1% acetic acid. Extracts were separated and quantitated with a C18 column with a methanol:water linear gradient.
The composition contains 3 wt. % avobenzone, 6 wt. % octocrylene, and 4 wt. % oxybenzophenone as sunscreen agents. Photo stability test of the composition was carried out as described in Example 1.

For data set [2] the following is noted: in vivo; cited from earlier work.

As for `COc1ccc(C(=O)CC(=O)c2ccc(C(C)(C)C)cc2)cc1` [avobenzone], the “loss of sunscreen agent with UV exposure” value in data set [1] is recorded as ~50%.
“Poly(vinylpyrrolidone/1-hexadecene) [PVPH]”: in data set [2], the dermal toxicity entry is reported as “no demonstrable dermal toxicity”.
For the compound Poly(vinylpyrrolidone/eicosene) [PVPE], the dermal toxicity result in data set [2] was “no demonstrable dermal toxicity”.
